Assay [1] addresses T1, human TLR8 (Homo sapiens, UniProt Q9NR97).
T1 construct: expressed in transfected cells; host or cells: HEK293
T1 sequence (Q9NR97 27-1041): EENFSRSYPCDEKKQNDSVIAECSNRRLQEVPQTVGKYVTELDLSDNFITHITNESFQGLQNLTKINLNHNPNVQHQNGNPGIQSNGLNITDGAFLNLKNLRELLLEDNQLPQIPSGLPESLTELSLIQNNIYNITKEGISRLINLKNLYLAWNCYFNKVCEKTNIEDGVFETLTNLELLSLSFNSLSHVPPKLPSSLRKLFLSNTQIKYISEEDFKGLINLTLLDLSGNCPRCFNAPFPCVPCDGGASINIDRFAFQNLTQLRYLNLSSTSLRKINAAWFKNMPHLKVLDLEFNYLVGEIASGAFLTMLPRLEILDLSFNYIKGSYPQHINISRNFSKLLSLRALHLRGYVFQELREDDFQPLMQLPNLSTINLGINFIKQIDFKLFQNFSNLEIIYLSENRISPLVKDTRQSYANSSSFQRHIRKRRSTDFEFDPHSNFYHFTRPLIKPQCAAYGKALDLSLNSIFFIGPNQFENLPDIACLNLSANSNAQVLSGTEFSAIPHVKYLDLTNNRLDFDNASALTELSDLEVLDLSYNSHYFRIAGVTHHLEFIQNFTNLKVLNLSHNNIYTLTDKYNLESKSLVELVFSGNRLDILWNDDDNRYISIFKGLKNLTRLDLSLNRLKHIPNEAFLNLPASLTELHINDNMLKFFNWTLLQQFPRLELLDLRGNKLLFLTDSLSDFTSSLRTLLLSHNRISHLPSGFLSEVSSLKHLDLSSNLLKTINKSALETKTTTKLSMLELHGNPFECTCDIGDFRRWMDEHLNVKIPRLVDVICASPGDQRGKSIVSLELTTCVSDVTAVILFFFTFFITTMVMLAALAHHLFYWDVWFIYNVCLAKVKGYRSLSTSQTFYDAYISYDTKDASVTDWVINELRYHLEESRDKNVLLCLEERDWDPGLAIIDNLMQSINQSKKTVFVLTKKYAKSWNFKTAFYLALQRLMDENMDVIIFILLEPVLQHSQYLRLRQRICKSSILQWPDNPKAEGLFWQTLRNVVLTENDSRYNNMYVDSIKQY
The assay is described as follows: TLR8 NFκB-luc cellular reporter assay in transiently transfected HEK293 cells. It is filed as cell-based. The following applies: lowest effective concentration; HEK293 cells transfected with wild type TLR8 and NFκB-luc reporter, 6 h incubation. How it is done:
(§1) The ability of compounds to activate human TLR7 and/or TLR8 was assessed in a cellular reporter assay using HEK293 cells transiently transfected with a TLR7 or TLR8 expression vector and NFκB-luc reporter construct. In one instance, the TLR expression construct expresses the respective wild type sequence or a mutant sequence comprising a deletion in the second leucine-rich repeat of the TLR.
(§2) HEK293 cells were grown in culture medium (DMEM supplemented with 10% FCS and 2 mM Glutamine). For transfection of cells in 10 cm dishes, cells were detached with Trypsin-EDTA, transfected with a mix of CMV-TLR7 or TLR8 plasmid (750 ng), NFκB-luc plasmid (375 ng) and a transfection reagent and incubated 24 h at 37° C. in a humidified 5% C02 atmosphere. Transfected cells were then detached with Trypsin-EDTA, washed in PBS and re-suspended in medium to a density of 1.67×10^5 cells/mL. Thirty microliters of cells were then dispensed into each well in 384-well plates, where 10 μL of compound in 4% DMSO was already present. Following 6 h incubation at 37° C., 5% CO2, the luciferase activity was determined by adding 15 μl of STEADY LITE PLUS substrate (PERKIN ELMER) to each well and readout performed on a VIEWLUX ULTRAHTS microplate imager (PERKIN ELMER). Dose response curves were generated from measurements performed in quadruplicates. Lowest effective concentrations (LEC) values, defined as the concentration that induces an effect which is at least two-fold above the standard deviation of the assay, were determined for each compound.
A general note: A reporter such as luciferase makes a cellular process visible.

For assay [2], the target named is T2, human TLR7 (Homo sapiens, UniProt Q9NYK1).
T2 construct: expressed in transfected cells; host or cells: HEK293
T2 sequence (Q9NYK1 27-1049): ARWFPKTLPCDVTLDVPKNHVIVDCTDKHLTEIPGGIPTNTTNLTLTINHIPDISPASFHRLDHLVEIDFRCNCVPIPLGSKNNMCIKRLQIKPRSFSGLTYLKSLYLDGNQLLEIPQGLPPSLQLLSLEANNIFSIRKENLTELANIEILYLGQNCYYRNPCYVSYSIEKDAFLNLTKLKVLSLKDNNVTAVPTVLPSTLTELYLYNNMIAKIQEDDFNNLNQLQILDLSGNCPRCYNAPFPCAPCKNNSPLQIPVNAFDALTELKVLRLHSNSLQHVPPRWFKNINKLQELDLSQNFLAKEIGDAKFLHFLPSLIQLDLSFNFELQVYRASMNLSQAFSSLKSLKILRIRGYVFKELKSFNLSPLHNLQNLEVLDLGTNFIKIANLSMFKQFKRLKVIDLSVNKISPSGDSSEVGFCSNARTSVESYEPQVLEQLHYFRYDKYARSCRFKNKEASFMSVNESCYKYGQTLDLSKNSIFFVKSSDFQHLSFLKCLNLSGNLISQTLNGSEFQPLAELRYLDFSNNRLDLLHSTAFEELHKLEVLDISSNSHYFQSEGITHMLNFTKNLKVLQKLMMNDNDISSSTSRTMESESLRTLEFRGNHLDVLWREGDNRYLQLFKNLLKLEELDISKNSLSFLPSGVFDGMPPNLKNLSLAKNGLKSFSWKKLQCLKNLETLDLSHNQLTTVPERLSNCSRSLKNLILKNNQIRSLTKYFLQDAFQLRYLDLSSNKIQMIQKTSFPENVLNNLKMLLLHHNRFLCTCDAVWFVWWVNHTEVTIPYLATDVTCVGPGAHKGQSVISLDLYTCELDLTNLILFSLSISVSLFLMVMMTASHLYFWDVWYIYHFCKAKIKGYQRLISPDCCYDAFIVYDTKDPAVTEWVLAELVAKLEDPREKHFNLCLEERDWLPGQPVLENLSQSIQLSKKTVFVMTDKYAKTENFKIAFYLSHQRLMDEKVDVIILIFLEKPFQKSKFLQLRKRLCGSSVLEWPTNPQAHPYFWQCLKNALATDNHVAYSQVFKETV
Briefly: TLR7 NFκB-luc cellular reporter assay in transiently transfected HEK293 cells. It counts as cell-based. To be noted: lowest effective concentration; HEK293 cells transfected with wild type TLR7 and NFκB-luc reporter, 6 h incubation. The method, then: as §1, §2

As for `CCCC[C@H](CO)Nc1nc(N)nc2cccc(OC)c12` [Compound 12, (R)-2-((2-amino-5-methoxyquinazolin-4-yl)amino)hexan-1-ol], the hTLR8-wt (LEC) in assay [1] was determined as 0.39 µM. The hTLR7-wt (LEC) in assay [2] is 11.3 µM.
With `CCC[C@H](CO)Nc1nc(N)nc2c(C)cccc12` [Compound 6, (R)-2-((2-amino-8-methylquinazolin-4-yl)amino)pentan-1-ol], in assay [1], the hTLR8-wt (LEC) was determined as 5.75 µM. In addition, in assay [2], the hTLR7-wt (LEC) is above 25 µM.
The molecule `CCCC[C@H](CO)Nc1nc(N)nc2c(Cl)cccc12` [Compound 8, (R)-2-((2-amino-8-chloroquinazolin-4-yl)amino)hexan-1-ol] had a hTLR8-wt (LEC) in assay [1] of 2.72 µM. The hTLR7-wt (LEC) in assay [2] is above 25 µM.
In the same order, the values of `CCCC[C@H](CO)Nc1nc(N)nc2cccc(F)c12` [Compound 2, (R)-2-((2-amino-5-fluoroquinazolin-4-yl)amino)hexan-1-ol] are 0.07 µM and 27.7 µM.
In the same order, the values of `CCCC[C@H](CO)Nc1nc(N)nc2cc(F)ccc12` [Compound 13, (R)-2-((2-amino-7-fluoroquinazolin-4-yl)amino)hexan-1-ol] are 0.04 µM and 29.4 µM.
`CCCC[C@H](CO)Nc1nc(N)nc2cc(C(F)(F)F)ccc12` [Compound 24, (R)-2-((2-amino-7-(trifluoromethyl)quinazolin-4-yl)amino)hexan-1-ol] had a hTLR8-wt (LEC) in assay [1] of 0.35 µM. This molecule yielded a hTLR7-wt (LEC) in assay [2] of 3.36 µM.
In the same order, the values of `CCCC[C@H](CO)Nc1nc(N)nc2cccc(C(=O)NC)c12` [Compound 22, (R)-2-amino-4-((1-hydroxyhexan-2-yl)amino)-N-methylquinazoline-5-carboxamide] are 1.81 µM and 2.17 µM.
Turning to `CCCC[C@H](CO)Nc1nc(N)nc2c(C)ccc(F)c12` [Compound 26, (R)-2-((2-amino-5-fluoro-8-methylquinazolin-4-yl)amino)hexan-1-ol], the hTLR8-wt (LEC) in assay [1] came out at 0.57 µM. Moreover, in assay [2], the hTLR7-wt (LEC) was above 100 µM.
In the same order, the values of `CCCC[C@H](CO)Nc1nc(N)nc2cc(-c3nnco3)ccc12` [Compound 5, (R)-2-((2-amino-7-(1,3,4-oxadiazol-2-yl)quinazolin-4-yl)amino)hexan-1-ol] are 0.38 µM and above 25 µM.
In assay [1], `CCCC[C@H](CO)Nc1nc(N)nc2c(C)cccc12` [Compound 7, (R)-2-((2-amino-8-methylquinazolin-4-yl)amino)hexan-1-ol] registered a hTLR8-wt (LEC) of 0.46 µM. In assay [2], this molecule showed a hTLR7-wt (LEC) above 25 µM.
In the same order, the values of `CCCC[C@H](CO)Nc1nc(N)nc2c(OC)cccc12` [Compound 17, (R)-2-((2-amino-8-methoxyquinazolin-4-yl)amino)hexan-1-ol] are 3.74 µM and above 50 µM.
In the same order, the values of `CCCC[C@H](CO)Nc1nc(N)nc2cccc(C)c12` [Compound 16, (R)-2-((2-amino-5-methylquinazolin-4-yl)amino)hexan-1-ol] are 0.19 µM and above 100 µM.
In the same order, the values of `CCCC[C@H](CO)Nc1nc(N)nc2cc(C#N)ccc12` [Compound 4, (R)-2-amino-4-((1-hydroxyhexan-2-yl)amino)quinazoline-7-carbonitrile] are 0.14 µM and above 100 µM.
Turning to `CCCC[C@H](CO)Nc1nc(N)nc2c(F)cccc12` [Compound 9, (R)-2-((2-amino-8-fluoroquinazolin-4-yl)amino)hexan-1-ol], the hTLR8-wt (LEC) in assay [1] worked out at 0.11 µM. This molecule came in with a hTLR7-wt (LEC) in assay [2] above 25 µM.
In the same order, the values of `CCCC[C@H](CO)Nc1nc(N)nc2cc(C(=O)OC)ccc12` [Compound 18, Methyl (R)-2-amino-4-((1-hydroxyhexan-2-yl)amino)quinazoline-7-carboxylate] are 0.57 µM and above 100 µM.
In the same order, the values of `CCCC[C@H](COC(=O)C(C)C)Nc1nc(N)nc2c(C)cccc12` [Compound 11, (R)-2-((2-amino-8-methylquinazolin-4-yl)amino)hexyl isobutyrate] are 0.64 µM and above 25 µM.
In assay [1], `CSCC[C@H](CO)Nc1nc(N)nc2cccc(F)c12` [Compound 20, (R)-2-((2-amino-5-fluoroquinazolin-4-yl)amino)-4-(methylthio)butan-1-ol] registered a hTLR8-wt (LEC) of 0.7 µM. Further, the hTLR7-wt (LEC) in assay [2] is above 50 µM.
With `CCCC[C@H](CO)Nc1nc(N)nc2cccc(C(F)(F)F)c12` [Compound 3, (R)-2-((2-amino-5-(trifluoromethyl)quinazolin-4-yl)amino)hexan-1-ol], the hTLR8-wt (LEC) in assay [1] worked out at 0.66 µM. Also, the hTLR7-wt (LEC) in assay [2] is above 100 µM.
In the same order, the values of `CCCC[C@H](CO)Nc1nc(N)nc2cc(F)cc(F)c12` [Compound 23, (R)-2-((2-amino-5,7-difluoroquinazolin-4-yl)amino)hexan-1-ol] are 0.04 µM and 6.24 µM.
In assay [1], `CCCC[C@H](CO)Nc1nc(N)nc2cccc(Cl)c12` [Compound 15, (R)-2-((2-amino-5-chloroquinazolin-4-yl)amino)hexan-1-ol] yielded a hTLR8-wt (LEC) of 0.07 µM. Further, the hTLR7-wt (LEC) in assay [2] is above 100 µM.
With `CCC[C@H](CO)Nc1nc(N)nc2c(F)cccc12` [Compound 10, (R)-2-((2-amino-8-fluoroquinazolin-4-yl)amino)pentan-1-ol], the hTLR8-wt (LEC) in assay [1] was 3.27 µM. In assay [2], the hTLR7-wt (LEC) was above 25 µM.
In the same order, the values of `CCCC[C@H](CO)Nc1nc(N)nc2c(F)c(F)ccc12` [Compound 19, (R)-2-((2-amino-7,8-difluoroquinazolin-4-yl)amino)hexan-1-ol] are 0.41 µM and above 100 µM.
In turn, `CCCC[C@H](CO)Nc1nc(N)nc2cccc(C3CC3)c12` [Compound 1, (R)-2-((2-amino-5-cyclopropylquinazolin-4-yl)amino)hexan-1-ol] showed a hTLR8-wt (LEC) in assay [1] of 0.35 µM. This molecule also gave a hTLR7-wt (LEC) in assay [2] above 100 µM.
